Reference: US5607836A, “Methods of detecting compounds which bind to the P2U receptor” (The Curators of the University of Missouri, priority 1995, dated 1997)

What was measured:
murine P2U receptor [1] = biological target: T1, murine P2U receptor (Mus musculus, UniProt P35383); assay: intracellular phosphatidylinositol 4,5-bisphosphate (PIP2) in K562 stable transfectants; type: cell-based; details: transient
Excerpt: Stable and Transient Transfections. To generate stable transfectants expressing the P2U receptor, K562 cells were transfected by electroporation (F. Toneguzzo et al., Mol. Cell. Biol. 6, 703 (1986)) with the neomycin-resistance plasmid pP2R1. pP2R1 is pRc/CMV containing a ~2.4 kb HindIII-NotI fragment of the P2U receptor cDNA, missing the first 6 nucleotides of the 5' untranslated region of the full length cDNA. control cells were stably transfected with pRc/CMV. Cells were sedimented at 200×g for 5 min at room temperature, rinsed once with phosphate-buffered saline (10 mM NaH2 PO4, pH 7.4, 120 mM NaCl, 5 mM KCl), and resuspended in phosphate-buffered saline at a final concentration of 4×10^7 cells/ml. The cells were chilled on ice for 10 min and then transferred in 0.5 ml aliquots to prechilled electroporation cuvettes. DNA (40 μg of pP2R1 linearized with PvuI) was added to the cell suspension, the cells were subjected to a single electrical pulse (1 kV, 25 μF) and the cuvettes were placed on ice. After 10 min, growth medium was added and the cells were incubated at 37° C. Fresh growth medium supplemented with 0.7 mg/ml G418 was added 48 h […], and the cells were incubated for 2 weeks to select for stable transfectants expressing neomycin resistance. […]

murine P2U receptor [2] = biological target: T1, murine P2U receptor; assay: cytoplasmic free calcium (fura-2) in K562 cells transfected with P2U receptor cDNA; type: cell-based; set-up: missing the first 6 nucleotides of the 5' untranslated region of the full length cDNA; expressed in transfected cells; host or cells: K562 human leukemia cells; details: for increase in [Ca^2+ ]i: K562 cells stably or transiently transfected with P2U receptor cDNA; for time of return of [Ca^2+ ]i to the basal level / time to maximal [Ca^2+ ]i after nucleotide addition: K562 stable or transient transfectants; for effect of depletion of extracellular Ca^2+ by EGTA on nucleotide-mediated increases in [Ca^2+ ]i: stable transfectants
Excerpt: (§1) Stable and Transient Transfections. To generate stable transfectants expressing the P2U receptor, K562 cells were transfected by electroporation (F. Toneguzzo et al., Mol. Cell. Biol. 6, 703 (1986)) with the neomycin-resistance plasmid pP2R1. pP2R1 is pRc/CMV containing a ~2.4 kb HindIII-NotI fragment of the P2U receptor cDNA, missing the first 6 nucleotides of the 5' untranslated region of the full length cDNA. control cells were stably transfected with pRc/CMV. Cells were sedimented at 200×g for 5 min at room temperature, rinsed once with phosphate-buffered saline (10 mM NaH2 PO4, pH 7.4, 120 mM NaCl, 5 mM KCl), and resuspended in phosphate-buffered saline at a final concentration of 4×10^7 cells/ml. The cells were chilled on ice for 10 min and then transferred in 0.5 ml aliquots to prechilled electroporation cuvettes. DNA (40 μg of pP2R1 linearized with PvuI) was added to the cell suspension, the cells were subjected to a single electrical pulse (1 kV, 25 μF) and the cuvettes were placed on ice. After 10 min, growth medium was added and the cells were incubated at 37° C. Fresh growth medium supplemented with 0.7 mg/ml G418 was added 48 h […], and the cells were incubated for 2 weeks to select for stable transfectants expressing neomycin resistance. Clonal cell lines were then isolated by transferring single cells to individual wells of a 96-well culture plate: each well contained 0.2 ml of conditioned growth medium filtered from K562 stock cultures, 0.2 ml of fresh growth medium, and 0.4 mg/ml G418. The clonal cell lines were cultured for three to four weeks in growth medium containing 0.4 mg/ml G418 and assayed for P2U receptor, the results shown are from one representative clonal cell line.
To generate transient transfectants, K562 cells were transfected as above with 40 μg unlinearized plasmid pCCM6×1 or pP2R (Lustig et al., supra 1993). Cells were incubated for 48 h at 37° C. in 100 mm culture dishes containing 12 ml of growth medium and assayed for P2U receptor activity.
(§2) Cytoplasmic Free Calcium Measurements. Cells were sedimented at 200×g for 5 min at room temperature and washed once with 10 ml of Hepes-bufferedsaline (20 mM Hepes, pH 7.4, 120 mM NaCl, 5 mM KCl, 1 mM MgCl2, and 1 mM CaCl2). Washed cells were suspended in Hepes-buffered saline at 5×10^5 cells/ml, and stored (for up to 4 h) at 37° C. The concentration of cytoplasmic free calcium, [Ca^2+ ]i, was measured by dual-excitation spectrofluorometric analysis of cells loaded with fura-2, a fluorescent probe for calcium.

[3] = system: P2T receptor of K562 cells; assay: cytoplasmic free calcium (fura-2) in untransfected or vector-transfected K562 cells; type: cell-based, human; details: untransfected or vector-transfected K562 cells
Excerpt: as §1, §2

[4] = biological target: T2, P2U receptor of CF/T43 cells (Homo sapiens, UniProt P41231); assay: intracellular calcium by fura-2 fluorescence in CF/T43 cells (endogenous receptor); type: cell-based; details: for [Ca^2+ ]i response to extracellular nucleotide: 10^-4 M (printed for UTP)
T2 construct: fura-2 calcium
Experimental: Heteroloqous Expression. A retroviral vector-containing plasmid, pLHP2USN, was constructed by insertion of the cloned CF/T43 cDNA into the EcoRI and XhoI sites of pLXSN (A. Miller and G. Rosman, Biotechniques 7, 980 (1989)). An amphotrophic packaging cell line, PA317, was used to produce the LHP2USN retroviral vector and a control vector containing Neor only (LSN). Clonal human astrocytoma cells 1321N1, UNC strain, generously provided by T. K. Harden (UNC, Chapel Hill, N.C.), were plated at 150,000 cells per 60-mm dish and infected with LHP2USN or LSN (2 hr, 4 ug/ml Polybrene) and after 48 hr selected with 600 ug/ml G418 (Life Technologies, Inc., Gaithersburg, Md., U.S.A.). To assay for receptor activity, intracellular calcium concentration was measured in confluent cells on coverslips by fura-2 fluorescence using microspectrofluorimetry as previously described (S. Mason et al., Br. J. Pharmacol. 103, 1649 (1991)). Measurement of cell inositol phosphate formation was as described by H. Brown et al., Mol. Pharmacol. 40, 648 (1991), in accordance with known techniques.
A retrovirus expression system was employed to study the cloned CF/T43 HP2U cDNA in 1321N1 human astrocytoma cells. The effect of extracellular nuceotides on intracellular calcium, as measured by fura-2 fluorescence, was assessed in CF/T43 cells, uninfected 1321N1 cells, and 1321N1 cells infected with retroviral vector containing either the cloned HP2U or no insert (LSN).

T2 sequence (P41231 whole entry): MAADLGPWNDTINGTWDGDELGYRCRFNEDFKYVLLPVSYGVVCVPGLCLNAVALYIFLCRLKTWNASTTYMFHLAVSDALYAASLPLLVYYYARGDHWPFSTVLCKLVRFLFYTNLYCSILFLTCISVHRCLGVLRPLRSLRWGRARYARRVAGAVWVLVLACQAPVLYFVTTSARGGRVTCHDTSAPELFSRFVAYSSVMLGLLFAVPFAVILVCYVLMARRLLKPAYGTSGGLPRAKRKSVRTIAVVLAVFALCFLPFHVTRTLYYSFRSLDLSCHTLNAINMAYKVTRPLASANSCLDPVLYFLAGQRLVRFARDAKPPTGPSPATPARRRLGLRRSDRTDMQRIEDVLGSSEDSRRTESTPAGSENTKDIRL
T1 sequence (P35383 whole entry, the tested form may be a part): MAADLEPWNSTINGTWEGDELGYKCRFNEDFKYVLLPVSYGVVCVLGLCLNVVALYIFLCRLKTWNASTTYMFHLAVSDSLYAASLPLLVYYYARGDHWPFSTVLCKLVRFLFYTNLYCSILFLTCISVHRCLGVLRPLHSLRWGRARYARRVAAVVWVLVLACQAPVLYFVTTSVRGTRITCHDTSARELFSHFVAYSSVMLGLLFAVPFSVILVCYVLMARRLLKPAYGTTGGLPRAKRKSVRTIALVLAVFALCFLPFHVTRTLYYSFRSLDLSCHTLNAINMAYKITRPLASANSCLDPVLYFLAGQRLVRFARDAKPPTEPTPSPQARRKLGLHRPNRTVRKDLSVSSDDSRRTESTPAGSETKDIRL

With Nc1ncnc2c1ncn2[C@@H]1O[C@H](COP(=O)(O)OP(=O)(O)OP(=O)(O)O)[C@@H](O)[C@H]1O [ATP] the “reduction of intracellular levels of phosphatidylinositol 4,5-bisphosphate (PIP2)” value (murine P2U receptor [1]) was “approximately 10%”, the EC50 (murine P2U receptor [2]) was ~1.4 µM and the “increase in [Ca^2+ ]i” value (murine P2U receptor [2]) was “two-fold increase”. For the same compound, the “time of return of [Ca^2+ ]i to the basal level” value (murine P2U receptor [2]) was ≤ 1 min, the “time to maximal [Ca^2+ ]i after nucleotide addition” value (murine P2U receptor [2]) was ≤ 5 s and the “effect of depletion of extracellular Ca^2+ by EGTA on nucleotide-mediated increases in [Ca^2+ ]i” value (murine P2U receptor [2]) was “not affected”. The “elevation of [Ca^2+ ]i in untransfected or vector-transfected K562 cells” value [3] was “Neither ATP nor UTP elevated [Ca^2+ ]^i”, the “[Ca^2+ ]i response to extracellular nucleotide” value [4] was “the same result observed with UTP” and the “[Ca^2+ ]i response to extracellular nucleotide in Ca2+-free medium” value [4] was “the same result observed with UTP”.
O=c1ccn([C@@H]2O[C@H](COP(=O)(O)OP(=O)(O)OP(=O)(O)O)[C@@H](O)[C@H]2O)c(=O)[nH]1 [UTP] was tested, and the “reduction of intracellular levels of phosphatidylinositol 4,5-bisphosphate (PIP2)” value (murine P2U receptor [1]) was “approximately 10%”, the EC50 (murine P2U receptor [2]) was ~0.8 µM and the “increase in [Ca^2+ ]i” value (murine P2U receptor [2]) was “two-fold increase”. The “time of return of [Ca^2+ ]i to the basal level” value (murine P2U receptor [2]) was ≤ 1 min, the “time to maximal [Ca^2+ ]i after nucleotide addition” value (murine P2U receptor [2]) was ≤ 5 s and the “effect of depletion of extracellular Ca^2+ by EGTA on nucleotide-mediated increases in [Ca^2+ ]i” value (murine P2U receptor [2]) was “not affected”. The “elevation of [Ca^2+ ]i in untransfected or vector-transfected K562 cells” value [3] was “Neither ATP nor UTP elevated [Ca^2+ ]^i”, the “[Ca^2+ ]i response to extracellular nucleotide” value [4] was “initial sharp increase in [Ca^2+ ]i which relaxed over 1-2 min to a prolonged plateau” and the “[Ca^2+ ]i response to extracellular nucleotide in Ca2+-free medium” value [4] was “sharp increase in [Ca^2+ ]i which returned to baseline without an intervening plateau phase”.
